The test system of data set [1] is UACC-62. The data set is described as follows: in vitro melanoma cell growth inhibition (NCI screen).
Data set [2] concerns HCT-15. The data set can be described thus: in vitro colon cancer cell growth inhibition (NCI screen).
Data set [3] deals with COLO-205. The description is as above.
Data set [4] has as its system NCI-H460. The data set can be described thus: in vitro non-small cell lung cancer cell growth inhibition (NCI screen).
In data set [5] the test system is SK-MEL-2. The data set is described as follows: in vitro melanoma cell growth inhibition (NCI screen).
The test system of data set [6] is NCI-H23. The data set can be described thus: in vitro non-small cell lung cancer cell growth inhibition (NCI screen).
Data set [7] has as its system M14. The data set can be described thus: in vitro melanoma cell growth inhibition (NCI screen).
Data set [8] deals with M19-MEL. The data set is described as above.
For data set [9], the system named is OVCAR-3. The data set can be described thus: in vitro ovarian cancer cell growth inhibition (NCI screen).
The subject of data set [10] is NCI-H522. The data set is described as follows: in vitro non-small cell lung cancer cell growth inhibition (NCI screen).
Data set [11] deals with SR. The data set can be described thus: in vitro leukemia cell growth inhibition (NCI screen).
Data set [12] has as its system human tumor cell lines. In kind it is cell-based.
Data set [13] deals with SK-MEL-5. The data set is described as follows: in vitro melanoma cell growth inhibition (NCI screen).
Data set [14] concerns HT 29. The data set can be described thus: in vitro colon cancer cell growth inhibition (NCI screen).
The test system of data set [15] is KM 20L2. The data set is described as above.
In data set [16] the test system is MALME-3M. The data set is described as follows: in vitro melanoma cell growth inhibition (NCI screen).
Data set [17] concerns HL-60(TB). The data set can be described thus: in vitro leukemia cell growth inhibition (NCI screen).
The subject of data set [18] is BT-549. The data set can be described thus: in vitro breast cancer cell growth inhibition (NCI screen).
The subject of data set [19] is T-47D. The description is as above.
In data set [20] the test system is MCF-7. Described as above.
Data set [21] has as its system IGROV1. The data set is described as follows: in vitro ovarian cancer cell growth inhibition (NCI screen).
The subject of data set [22] is PC-3. The data set is described as follows: in vitro prostate cancer cell growth inhibition (NCI screen).
In data set [23] the test system is ACHN. The data set is described as follows: in vitro renal cancer cell growth inhibition (NCI screen).
Data set [24] has as its system HCT-116. The data set can be described thus: in vitro colon cancer cell growth inhibition (NCI screen).
Data set [25] has as its system SW 620. The data set is described as above.
The subject of data set [26] is K-562. The data set is described as follows: in vitro leukemia cell growth inhibition (NCI screen).
The subject of data set [27] is NCI-H266. The data set is described as follows: in vitro non-small cell lung cancer cell growth inhibition (NCI screen).
The test system of data set [28] is MDA-N. The data set is described as follows: in vitro breast cancer cell growth inhibition (NCI screen).
For data set [29], the system named is HOP-92. The data set can be described thus: in vitro non-small cell lung cancer cell growth inhibition (NCI screen).
Data set [30] has as its system MDA-MB-435. The data set is described as follows: in vitro breast cancer cell growth inhibition (NCI screen).
The test system of data set [31] is MOLT-4. The data set can be described thus: in vitro leukemia cell growth inhibition (NCI screen).
For data set [32], the system named is TK-10. The data set is described as follows: in vitro renal cancer cell growth inhibition (NCI screen).
Data set [33] concerns RXF-393. The data set is described as above.
For data set [34], the system named is MCF7/ADR-RES. The data set is described as follows: in vitro breast cancer cell growth inhibition (NCI screen).
Data set [35] has as its system OVCAR-8. The data set can be described thus: in vitro ovarian cancer cell growth inhibition (NCI screen).
For data set [36], the system named is OVCAR-4. The data set is described as above. The settings on record: OVACR-4.
Data set [37] has as its system HCC-2998. The data set is described as follows: in vitro colon cancer cell growth inhibition (NCI screen).
The test system of data set [38] is UACC-257. The data set is described as follows: in vitro melanoma cell growth inhibition (NCI screen).
The test system of data set [39] is LOX1MVI. Described as above.
The subject of data set [40] is SN12C. The data set is described as follows: in vitro renal cancer cell growth inhibition (NCI screen).
Data set [41] relates to SNB-75. The data set is described as follows: in vitro CNS cancer cell growth inhibition (NCI screen).
The test system of data set [42] is UO-31. The data set is described as follows: in vitro renal cancer cell growth inhibition (NCI screen).
Data set [43] relates to XF-498. The data set can be described thus: in vitro CNS cancer cell growth inhibition (NCI screen).
Data set [44] concerns U 251. The description is as above.
The test system of data set [45] is SF-539. The description is as above.

Regarding `Cc1nc2c(n1CCN(C)C)C(=O)c1ccccc1C2=O` [Compound 15], the “cytotoxicity log GI50” value in data set [1] is given as -4.92 M; in data set [2], -4.89 M; in data set [3], -5.35 M; in [4] it was -5.01 M; in [5] it was -4.91 M; in data set [6] it was -4.92 M. The “cytotoxicity log GI50” value is reported as -4.93 M in data set [7]; -5.69 M in [8]; -5.15 M in [9]; -5.27 M in data set [10]; -4.93 M in data set [11]; -5.13 M in [13]. Further, the “cytotoxicity log GI50” value in data set [14] is -4.98 M; in [15], -5.20 M; in data set [16] it was -5.55 M; in data set [17] it was -5.28 M. Further, in data set [12] (cancer cell line panel), the “cytotoxicity against tumor cells (in words)” value is “comparable to those of compounds 6-14”.
With `O=C(NC1=C(Cl)C(=O)c2ccccc2C1=O)c1ccccc1` [Compound 2e, 2-Benzoylamino-3-chloro-1,4-naphthoquinone], the “cytotoxicity log GI50” value in data set [18] is reported as -4.70 M; in data set [1], -4.62 M; in data set [19], -4.66 M; in data set [2], -4.60 M; in data set [3], -4.81 M; in data set [20], -4.72 M. In addition, the “cytotoxicity log GI50” value in data set [21] is listed as -4.66 M; in data set [22], -4.60 M; in data set [23], -4.68 M; in data set [24], -4.76 M; in [6] it was -4.62 M; in data set [9], -4.72 M. Moreover, the “cytotoxicity log GI50” value in data set [10] was -4.62 M; in data set [25], -4.76 M; in data set [26] it was -4.66 M; in [27], -4.61 M; in data set [28], -5.30 M; in data set [29] it was -4.60 M. The “cytotoxicity log GI50” value is -4.72 M in data set [30]; -4.70 M in data set [31]; -4.64 M in data set [32]; -4.77 M in [16]; -4.72 M in data set [33]; -4.73 M in data set [34]. The GI50 in [12] (Homo sapiens, cancer cell panel, general / most cell lines, read-out: logGI50 values in the cancer cell line panel (converted)) is 10 to 100 µM.
Turning to `CCNC1=C(NC(=O)c2ccc(OC)cc2)C(=O)c2ccccc2C1=O` [Compound 49], the “cytotoxicity log GI50” value in data set [1] is given as -4.40 M; in data set [35] it was -4.61 M; in [3], -4.43 M; in data set [22], -4.48 M; in data set [24], -4.44 M; in [6], -4.36 M. Besides, the “cytotoxicity log GI50” value in data set [7] is listed as -4.67 M; in data set [36], -4.46 M; in data set [9] it was -4.62 M; in data set [37], -4.43 M; in data set [10], -4.51 M; in [25], -4.36 M. Besides, the “cytotoxicity log GI50” value in [28] is -4.43 M; in [38], -4.71 M; in data set [13] it was -4.46 M; in [30], -4.77 M; in [14], -4.63 M; in data set [31] it was -4.44 M. For the same molecule, the “cytotoxicity log GI50” value in data set [16] was -4.67 M; in data set [33] it was -4.55 M; in data set [34] it was -4.54 M.
In the case of `CC(=O)NC1=C(NCCO)C(=O)c2ccccc2C1=O` [Compound 40], the “cytotoxicity log GI50” value is recorded as -4.52 M in data set [24]; -5.01 M in [8]; -4.72 M in [9]; -4.61 M in [10]; -4.53 M in data set [13]; -4.62 M in data set [15]. The “cytotoxicity log GI50” value is -4.89 M in [16] and -4.68 M in data set [17].
Take `Cc1nc2c(n1C(C)(C)C)C(=O)c1ccccc1C2=O` [Compound 8]: the “cytotoxicity log GI50” value in data set [1] is on record as -4.35 M; in data set [39], -4.38 M; in data set [40], -4.30 M; in data set [41], -4.50 M; in [4], -4.44 M; in data set [42] it was -4.43 M. Moreover, the “cytotoxicity log GI50” value is -4.31 M in data set [23]; -4.42 M in [6]; -4.61 M in [8]; -4.41 M in data set [9]; -4.36 M in data set [10]; -4.30 M in data set [26]. The “cytotoxicity log GI50” value in data set [11] is given as -4.35 M; in [38], -4.37 M; in data set [29], -5.03 M; in data set [13] it was -4.41 M; in data set [14], -4.36 M; in [31], -4.31 M. In addition, the “cytotoxicity log GI50” value in data set [16] is -4.35 M; in data set [17], -4.34 M; in data set [43], -4.36 M.
Consider `CC(=O)NC1=C(NCCN(C)C)C(=O)c2ccccc2C1=O` [Compound 39], for which the “cytotoxicity log GI50” value was -4.98 M in data set [1]; -4.90 M in data set [39]; -4.98 M in data set [40]; -5.02 M in data set [2]; -5.00 M in [3]; -4.89 M in [4]. In addition, the “cytotoxicity log GI50” value in data set [24] is reported as -5.08 M; in data set [6], -4.94 M; in data set [36], -5.05 M; in data set [8] it was -5.12 M; in [10], -4.99 M; in data set [26], -4.91 M. In addition, the “cytotoxicity log GI50” value in [38] was -5.03 M; in [44] it was -4.99 M; in [45] it was -4.93 M; in data set [13], -5.14 M; in data set [16], -5.12 M; in [17] it was -5.01 M.
